One block for each compound: values may come before it.
Assays:
[1] = molecular target: T1, Serine/threonine-protein kinase ULK1 (Homo sapiens) (UniProt O75385); conditions: at 10 µM
T1 sequence (whole entry): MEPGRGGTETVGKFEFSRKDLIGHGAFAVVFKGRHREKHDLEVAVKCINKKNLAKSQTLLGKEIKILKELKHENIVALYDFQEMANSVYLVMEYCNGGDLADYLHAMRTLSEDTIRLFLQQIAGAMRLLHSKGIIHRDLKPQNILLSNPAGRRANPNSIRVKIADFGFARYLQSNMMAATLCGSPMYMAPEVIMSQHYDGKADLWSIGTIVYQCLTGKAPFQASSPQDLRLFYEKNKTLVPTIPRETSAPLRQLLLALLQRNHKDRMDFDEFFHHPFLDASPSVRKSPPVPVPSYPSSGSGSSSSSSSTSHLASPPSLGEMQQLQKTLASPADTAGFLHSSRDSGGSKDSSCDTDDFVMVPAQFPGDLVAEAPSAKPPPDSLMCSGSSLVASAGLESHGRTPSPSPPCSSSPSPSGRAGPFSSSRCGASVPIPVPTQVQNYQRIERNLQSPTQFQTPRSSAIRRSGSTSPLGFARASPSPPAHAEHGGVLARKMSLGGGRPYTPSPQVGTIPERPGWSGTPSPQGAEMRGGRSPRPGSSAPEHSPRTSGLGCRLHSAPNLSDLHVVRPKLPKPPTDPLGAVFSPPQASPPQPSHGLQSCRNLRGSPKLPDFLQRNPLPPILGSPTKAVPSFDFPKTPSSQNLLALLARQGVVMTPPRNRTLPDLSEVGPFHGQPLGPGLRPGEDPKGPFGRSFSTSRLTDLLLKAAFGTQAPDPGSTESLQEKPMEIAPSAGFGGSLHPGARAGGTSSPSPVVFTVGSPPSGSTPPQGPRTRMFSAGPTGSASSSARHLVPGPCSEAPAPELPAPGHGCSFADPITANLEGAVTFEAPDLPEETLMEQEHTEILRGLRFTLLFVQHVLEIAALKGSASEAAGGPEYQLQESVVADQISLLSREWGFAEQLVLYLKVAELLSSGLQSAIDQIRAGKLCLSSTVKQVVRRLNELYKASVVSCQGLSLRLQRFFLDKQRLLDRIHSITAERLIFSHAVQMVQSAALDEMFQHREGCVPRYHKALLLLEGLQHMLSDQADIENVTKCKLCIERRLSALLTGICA

[2] = molecular target: T2, RAC-gamma serine/threonine-protein kinase (Homo sapiens, UniProt Q9Y243); assay: Selectivity interaction (Ambit KINOMEscan and KiNATiv profiling in Jurkat cells) EUB0000090b AKT3; assay type: cell-based; conditions: at 1 µM
T2 sequence (Q9Y243 whole entry): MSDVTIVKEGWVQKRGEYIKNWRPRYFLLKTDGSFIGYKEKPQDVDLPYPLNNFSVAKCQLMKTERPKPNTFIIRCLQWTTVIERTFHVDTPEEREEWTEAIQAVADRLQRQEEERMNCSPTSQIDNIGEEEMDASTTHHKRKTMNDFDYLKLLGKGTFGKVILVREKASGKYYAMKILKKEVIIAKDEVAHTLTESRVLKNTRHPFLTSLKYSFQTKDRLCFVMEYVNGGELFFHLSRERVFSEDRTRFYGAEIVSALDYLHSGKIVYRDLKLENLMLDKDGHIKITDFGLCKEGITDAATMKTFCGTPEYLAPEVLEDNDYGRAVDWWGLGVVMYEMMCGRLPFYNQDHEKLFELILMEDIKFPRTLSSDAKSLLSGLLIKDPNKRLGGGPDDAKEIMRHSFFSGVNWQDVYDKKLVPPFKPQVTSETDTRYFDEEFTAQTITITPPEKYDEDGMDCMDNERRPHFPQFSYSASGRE

[3] = molecular target: T3, Serine/threonine-protein kinase 17B (Homo sapiens) (UniProt O94768); assay: Selectivity interaction (Ambit KINOMEscan and KiNATiv profiling in Jurkat cells) EUB0000090b STK17B; assay type: cell-based; conditions: at 1 µM
T3 sequence (whole entry): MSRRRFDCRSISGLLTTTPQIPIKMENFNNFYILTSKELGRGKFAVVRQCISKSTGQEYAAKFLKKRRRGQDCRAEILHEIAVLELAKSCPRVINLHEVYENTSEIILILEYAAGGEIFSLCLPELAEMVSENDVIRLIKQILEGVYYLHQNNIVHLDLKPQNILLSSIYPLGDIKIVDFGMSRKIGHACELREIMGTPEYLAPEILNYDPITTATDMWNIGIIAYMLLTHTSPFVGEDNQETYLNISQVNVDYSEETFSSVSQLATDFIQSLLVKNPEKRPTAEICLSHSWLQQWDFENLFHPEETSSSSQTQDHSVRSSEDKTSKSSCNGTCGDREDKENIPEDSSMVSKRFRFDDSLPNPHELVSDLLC

[4] = molecular target: T2, RAC-gamma serine/threonine-protein kinase; assay: Selectivity interaction (Kinase panel (Z-LYTE Assay)) EUB0001632a AKT3; conditions: at 10 µM
[5] = molecular target: T4, Mitogen-activated protein kinase kinase kinase 3 (Homo sapiens) (UniProt Q99759); assay: Selectivity interaction (KinomeScan (DiscoverX)) EUB0000695a MAP3K3; conditions: at 100 nM
T4 sequence (whole entry): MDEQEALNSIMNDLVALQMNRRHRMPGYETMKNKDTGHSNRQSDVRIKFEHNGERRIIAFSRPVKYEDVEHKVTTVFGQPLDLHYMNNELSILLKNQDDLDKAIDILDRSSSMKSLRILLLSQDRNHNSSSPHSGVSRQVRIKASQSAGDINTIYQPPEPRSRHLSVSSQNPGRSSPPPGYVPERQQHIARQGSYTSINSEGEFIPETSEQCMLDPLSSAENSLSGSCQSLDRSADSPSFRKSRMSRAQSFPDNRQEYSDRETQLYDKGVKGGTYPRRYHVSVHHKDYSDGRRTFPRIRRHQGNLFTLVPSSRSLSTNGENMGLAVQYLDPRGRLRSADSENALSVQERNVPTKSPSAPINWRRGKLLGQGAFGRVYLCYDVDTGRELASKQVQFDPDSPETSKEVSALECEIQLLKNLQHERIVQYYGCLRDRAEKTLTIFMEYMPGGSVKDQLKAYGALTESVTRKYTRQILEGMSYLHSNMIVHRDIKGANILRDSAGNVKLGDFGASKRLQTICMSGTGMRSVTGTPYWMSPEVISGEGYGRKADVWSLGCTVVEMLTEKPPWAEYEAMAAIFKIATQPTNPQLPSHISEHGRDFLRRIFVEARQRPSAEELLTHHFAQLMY

[6] = molecular target: Tyrosine-protein kinase Srms (Homo sapiens) (UniProt Q9H3Y6); conditions: at 10 µM
Tyrosine-protein kinase Srms (Homo sapiens), sequence (Q9H3Y6 whole entry): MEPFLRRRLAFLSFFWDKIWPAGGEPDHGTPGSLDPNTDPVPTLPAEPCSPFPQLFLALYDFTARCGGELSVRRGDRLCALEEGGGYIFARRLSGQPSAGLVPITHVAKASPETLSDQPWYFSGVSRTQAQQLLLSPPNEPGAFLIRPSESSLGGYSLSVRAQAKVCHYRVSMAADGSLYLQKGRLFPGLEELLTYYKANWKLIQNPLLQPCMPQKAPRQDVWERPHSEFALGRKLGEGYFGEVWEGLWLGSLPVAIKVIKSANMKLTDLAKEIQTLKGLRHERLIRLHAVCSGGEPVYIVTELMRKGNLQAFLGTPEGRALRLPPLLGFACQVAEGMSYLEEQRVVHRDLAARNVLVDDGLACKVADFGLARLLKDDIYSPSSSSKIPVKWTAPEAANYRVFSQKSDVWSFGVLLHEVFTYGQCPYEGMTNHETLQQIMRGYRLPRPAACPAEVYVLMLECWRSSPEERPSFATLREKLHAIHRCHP

[7] = molecular target: Glutamate receptor ionotropic, NMDA 1 (Homo sapiens) (UniProt Q05586); assay: Selectivity interaction (Panel of non-epigenetic targets (kinases, GPCRs, ion channels, and transporters, Eurofins) ) EUB0000271b GRIN1; conditions: at 1 µM
[8] = molecular target: MAP kinase-activated protein kinase 2 (Homo sapiens, UniProt P49137); assay: Selectivity interaction (KinomeScan (DiscoverX)) EUB0000229b MAPKAPK2; conditions: at 10 µM
MAP kinase-activated protein kinase 2, sequence (P49137 whole entry, looked up): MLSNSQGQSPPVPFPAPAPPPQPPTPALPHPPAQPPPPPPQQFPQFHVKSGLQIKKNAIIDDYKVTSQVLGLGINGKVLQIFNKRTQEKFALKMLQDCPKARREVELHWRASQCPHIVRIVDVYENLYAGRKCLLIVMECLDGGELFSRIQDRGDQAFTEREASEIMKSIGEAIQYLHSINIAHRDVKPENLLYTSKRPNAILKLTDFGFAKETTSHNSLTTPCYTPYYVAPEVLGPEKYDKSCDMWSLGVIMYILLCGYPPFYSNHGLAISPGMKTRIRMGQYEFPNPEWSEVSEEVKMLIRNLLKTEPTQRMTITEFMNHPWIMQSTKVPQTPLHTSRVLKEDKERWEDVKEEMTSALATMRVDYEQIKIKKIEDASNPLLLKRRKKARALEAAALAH

[9] = molecular target: cAMP-dependent protein kinase catalytic subunit beta (Homo sapiens) (UniProt P22694); assay: Selectivity interaction (KinomeScan (DiscoverX)) EUB0001619a PRKACB; conditions: at 1 µM
[10] = molecular target: Bone morphogenetic protein receptor type-1A (Homo sapiens, UniProt P36894); assay: Selectivity interaction (KinomeScan (DiscoverX)) EUB0000618a BMPR1A; conditions: at 10 µM
Bone morphogenetic protein receptor type-1A, sequence (P36894 whole entry): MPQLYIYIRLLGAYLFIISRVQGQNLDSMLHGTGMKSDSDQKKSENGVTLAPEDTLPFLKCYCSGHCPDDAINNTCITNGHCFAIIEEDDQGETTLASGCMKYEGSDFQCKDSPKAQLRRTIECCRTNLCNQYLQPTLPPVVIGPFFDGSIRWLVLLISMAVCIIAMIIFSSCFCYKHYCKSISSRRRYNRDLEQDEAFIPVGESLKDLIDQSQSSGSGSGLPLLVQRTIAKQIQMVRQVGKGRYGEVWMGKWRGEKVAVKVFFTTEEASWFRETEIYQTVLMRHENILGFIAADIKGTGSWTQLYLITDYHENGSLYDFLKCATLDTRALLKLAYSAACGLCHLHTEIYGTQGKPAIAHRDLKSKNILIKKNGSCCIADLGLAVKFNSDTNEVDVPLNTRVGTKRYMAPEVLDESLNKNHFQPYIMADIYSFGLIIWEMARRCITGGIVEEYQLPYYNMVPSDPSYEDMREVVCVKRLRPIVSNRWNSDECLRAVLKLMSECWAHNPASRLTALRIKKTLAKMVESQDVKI

SMILES: Cc1cc([C@@H](C)Nc2ccccc2C(=O)O)c2nc(N3CCOCC3)cc(=O)n2c1 [AZD-6482]
% of control [1]: 91%

SMILES: CN(C)C/C=C/C(=O)Nc1ccc(C(=O)N2CCCC(Nc3ncc(Cl)c(-c4c[nH]c5ccccc45)n3)C2)cc1 (stereo not given)
% of control [2]: 96% | % of control [3]: 81%

% of control [4]: 2.65%
SMILES: Cn1cc(-n2cnc3c(NCc4nc5cc(Cl)c(Cl)cc5[nH]4)nc(N4CCOCC4)nc32)cn1

SMILES: Cc1cc(F)c(C(=O)Nc2cccc(-c3nncn3C(C)C)n2)cc1-n1cnc(C2CC2)c1
% of control [5]: 93%

% of control [6]: 100%
SMILES: CCN(CC)CCCCNc1ncc2cc(-c3cc(OC)cc(OC)c3)c(NC(=O)NC(C)(C)C)nc2n1

SMILES: Cc1cc(C)cc([C@@H]2c3cc(C)ccc3NC(=O)CN2C(=O)c2ccc(Br)s2)c1
% of inhibition [7]: 1%

SMILES: COc1cc(N(C)c2ccnc3ccc(C(F)(F)F)cc23)cc(OC)c1OC
% binding [8]: 93%

SMILES: N#Cc1cccc(-c2c[nH]c3ncnc(N4CCOCC4)c23)c1
% of control [9]: 84%

SMILES: O[C@H]1CC[C@H](Nc2ncc3nc(Nc4c(F)cc(F)cc4F)n([C@H]4CCOC4)c3n2)CC1
% of control [10]: 100%

— ChEMBL document CHEMBL5465560, “Selectivity Literature for EUbOPEN Chemogenomic Library” (2024)
